The values that follow come from US11919906B2, “Crystal form of ACP-196 and method of treatment thereof” (Hangzhou SoliPharma Co., Ltd., priority 2016, dated 2024).

Series [1] in a line: Isothermal sorption (dynamic vapor sorption), hygroscopicity. Conditions: between 30 to 80% RH. In kind it is physicochemical. Here is the method:
Dynamic vapor sorption data and isothermal sorption data were collected on TA Instruments Q5000 TGA. Method: A sample of 1 to 10 mg was placed in a platinum pan; the weight change of the sample during the change in relative humidity from 0% to 80% to 0% was measured.

Series [2] in a line: Thermogravimetric analysis (TGA), weight loss / residual solvents. It counts as physicochemical. Particulars: before 150° C. The procedure:
Thermogravimetric analysis data were collected on TA instruments Q500 TGA. Method: A sample of 5 to 15 mg was placed in a platinum pan, using High Resolution™, the sample was heated from room temperature to 350° C. at a heating rate of 10° C./min under the protection of dry nitrogen purge at 40 mL/min.

`CC#CC(=O)N1CCC[C@H]1c1nc(-c2ccc(C(=O)Nc3ccccn3)cc2)c2c(N)nccn12` [ACP-196 Form 1]: the “weight change (isothermal sorption plot)” value in series [1] is recorded as 0.8%.
On to `CC#CC(=O)N1CCC[C@H]1c1nc(-c2ccc(C(=O)Nc3ccccn3)cc2)c2c(N)nccn12` [amorphous ACP-196], for which the “weight change (isothermal sorption plot)” value in series [1] was found to be 5.5%. Besides, the “weight loss (TGA)” value in series [2] is on record as 11.1%.
